From patent EP0919125A1, “Synergistic antimicrobial composition” (Calgon Corporation, priority 1997, dated 1999) come the findings set out here.

Format in all cases: cell-based
For test [1], the system named is Pseudomonas aeruginosa (ATCC 15442). Briefly: Microtiter test of biocidal efficacy and synergy (MIC/MBC, Kull K value), Example 1. On the procedure:
An 8X stock solution of DBDCB was prepared by dissolving about 3.2 grams (g) of 20% active DBDCB in about 4 ml of methanol and diluting the volume up to about 100 ml with deionized water. The DBDCB used in the examples was obtained from Calgon Corporation, Pittsburgh, PA, as Merguard® 1200. A Triclosan 4X stock solution was prepared by dissolving about 0.16g of about 99% active Triclosan in about 5 ml of methanol and diluting the volume up to about 100 ml with deionized water. The Triclosan was obtained from Ciba Geigy as Irgasan® DP 300.
Two microtiter plates were prepared for use in the example, each microtiter plate having 8 rows, A-H, and 12 columns, 1-12. The amount of each biocide in each well of the plates is depicted below.
The amount of biocide in each well of the second microtiter plate of each set was a follows: TABLE 2
(§1) The minimum inhibitory concentration (MIC) for each biocide combination against Ps. aeruginosa was determined. The MIC is the least amount of biocide needed to prevent growth in the well, with growth being defined as turbidity in the medium or a "pellet" of cells which came out of the medium and settled at the bottom of the well.
Additional plates were then subcultured from the MIC plates at 24 hours following biocide addition. Subculturing was done to determine the minimum biocidal concentration (MBC). […]

For test [2] the test system is unchanged. Briefly: Microtiter test of biocidal efficacy and synergy (Kull K value), Example II, bacterium. The protocol: as §1
(§2) Additional plates were then subcultured from the MIC plates at 24 hours following biocide addition. Subculturing was done to determine the minimum biocidal concentration (MBC). The MBC is the lowest concentration of biocide that results in no growth after subculturing and subsequent incubation.
(§3) All of the microtiter plates including the MIC plates and the MBC plates were incubated for 24 hours at 37°C. Following the 24 hour incubation period, the presence or absence of growth in each well of the plates was determined. Growth in the microtiter plates was determined with a Dynatech MR-5000 microplate reader, available from Dynatech Laboratories, Chantilly, VA, USA, the use of which will be familiar to one having ordinary skill in the art. The presence or absence of growth in each well, along with the concentration of biocide in each well, was then used to determine the synergistic properties of the biocide combinations. The synergistic properties were evaluated by determining the Kull value, or K value. The method for calculating K value is well known to those skilled in the art. In this example, the K value was determined by the following formula: K=([DBDCB] In Combination)/([DBDCB] Alone)+([Triclosan] In Combination)/([Triclosan] Alone) [formula] where "[DBDCB]
A K value of less than 1 indicates synergy between the two biocides, a K value of greater than 1 indicates antagonism between the two biocides, and a K value equal to 1 indicates an additive effect of the two biocides.
Example I was repeated with the following differences. The DBDCB was tested at the following concentrations: 200, 100, 50, 25, 12.5, 6.25 and 3.125, with concentration given in ppm active. […]

Test [3] relates to Candida albicans (ATCC 10231). Briefly: Microtiter test of biocidal efficacy and synergy (Kull K value), Example II, yeast. As to conditions: ATCC10231, 120 h. The protocol: as §1, §2
as §3, with “The method for calculating K value is well known to those skilled in the art. In this example, the K value was determined by the following formula: K=([DBDCB] In Combination)/([DBDCB] Alone)+([Triclosan] In Combination)/([Triclosan] Alone) [formula] where "[DBDCB]” left out

Read-outs that look alike come from different tables or passages of the source.

In the case of `N#CCCC(Br)(C#N)CBr` (stereo not shown) [DBDCB, 1,2-dibromo-2,4-dicyanobutane], the MIC in test [1] (ATCC15442, concentration of DBDCB which, used alone, resulted in inhibition of microbial growth, ppm active, 24 hours at 37°C, read-out: [DBDCB] Alone) was found to be 200 µg/mL; in test [2] (DBDCB alone, inhibition of microbial growth, ppm active, 35°C for 24 hours), 200 ppm; in test [2] (Pseudomonas aeruginosa, ATCC15442, 24 h, DBDCB alone, inhibition of microbial growth, ppm active, 35°C for 24 hours, read-out: [DBDCB] Alone), 100 µg/mL; in test [3] (DBDCB alone, inhibition of microbial growth, ppm active, 30°C for 5 days, read-out: [DBDCB] Alone), 100 µg/mL.

As for `Oc1cc(Cl)ccc1Oc1ccc(Cl)cc1Cl` [Triclosan, 2,4,4'-trichloro-2'-hydroxydiphenyl ether], the MIC in test [1] (ATCC15442, 24 h, read-out: [Triclosan] Alone) was 100 µg/mL; in test [2] (Pseudomonas aeruginosa, ATCC15442, 24 h, read-out: [Triclosan] Alone), over 100 µg/mL; in test [3] (read-out: [Triclosan] Alone), 12.5 µg/mL.
